According to patent US9856298B2 (priority 2011, dated 2018):
Values after ≈ are worked out from the molar mass of the structure shown. Read-outs that look alike come from different tables or passages of the source. Numbered stars: 1 amine (or outer) side, 2 acyl side, 3 side chain; on linkers, the order of the positions; unused ones are H or OH. Square brackets hold non-standard residues; d marks the D form. Primed or numbered codes have the meaning given here. Peptide text beside a SMILES is read from it. * marks the point of attachment. δOrn(α-TMG) = CN(C)C(=N[C@@H](CCCN[*:1])C(=O)[*:2])N(C)C; Guan″ = guanidino group at the N-terminus, N=C(N)*; tPEG5000 = PEG of 5000 linked via thiol group; Guan = N-guanidino (N-terminal), N=C(N)*; Hyp = O=C(O)[C@@H]1C[C@@H](O)CN1; Tle = CC(C)(C)[C@H](N)C(=O)O; Orn = NCCC[C@H](N)C(=O)O

How the values were obtained:
[1] = test system: Escherichia coli strain BL21AI; test: Minimum inhibitory concentration in 1% TSB; assay type: cell-based; details: for MIC in TSB: E. coli BL21AI, 1% TSB, 20 hours at 37° C.
Description: To that end, the peptides were dissolved in water and diluted in a two-fold dilution series with 1% aqueous soybean medium (TSB) in sterile 96-well plates (Greiner Bio-One GmbH) from 128 μg/ml in twelve dilution steps to 62.5 ng/ml. Overnight cultures of Escherichia coli strain BL21AI were adjusted with 1% TSB to about […] colony forming units per ml. In each case 50 μl of peptide solution per well were then mixed with in each case 50 μl of the bacteria solution, in order to achieve a starting concentration of 4×10^5 bacteria per well. After incubation for 20 hours at 37° C., the absorption at 595 nm was determined (microplate reader, TECAN Trading AG).

[2] = mouse serum (100%); details: 37° C., up to 6 hours
[3] = mouse; for uncleaved peptide remaining after the indicated time (instead of half-life): serum, 15 µg/ml

Row | Compound | cleaved bond [2] | MIC in TSB [1] [µM] | also measured
1 | CC[C@H](C)[C@H](NC(=O)[C@H](Cc1ccc(O)cc1)NC(=O)[C@@H](NC(=O)[C@@H]1CCCN1C(=O)[C@H](CCCNC(=N)N)NC(=O)[C@H](CC(N)=O)NC(=O)[C@H](CC(N)=O)NC(=O)[C@H](CCCNC(=O)CNC(=O)[C@@H](N)CO)N=C(N(C)C)N(C)C)C(C)C)C(=O)N1CCC[C@H]1C(=O)N[C@@H](CCCNC(=N)N)C(=O)N1CCC[C@H]1C(=O)N[C@@H](CCCNC(=N)N)C(=O)N1CCC[C@H]1C(=O)N1CCC[C@H]1C(=O)N[C@@H](Cc1c[nH]cn1)C(=O)N1CCC[C@H]1C(=O)N[C@@H](CCCNC(=N)N)C(=O)N[C@@H](CC(C)C)C(=O)O [Api 137 (SG)] (H-SG[δOrn(α-TMG)]NNRPVYIPRPRPPHPRL-OH) |  | 0.2 (≈ 0.487 µg/mL) | Effect of peptide linker or remaining linker residues on the MIC ([1]; compared with the unmodified peptide): does not increase the MIC or increases it only insignificantly
2 | CC(C)C[C@H](NC(=O)[C@H](Cc1ccc(O)cc1)NC(=O)[C@@H]1CCCN1C(=O)[C@@H]1CCCN1C(=O)[C@H](CCCCN)NC(=O)[C@H](CC(=O)O)NC(=O)[C@@H](N)C(C)C)C(=O)N1CCC[C@H]1C(=O)N[C@@H](CCCNC(=N)N)C(=O)N1CCC[C@H]1C(=O)N[C@@H](CCCNC(=N)N)C(=O)N1CCC[C@H]1C(=O)N1C[C@H](O)C[C@H]1C(=O)N[C@@H](CCCNC(=N)N)C(=O)N1C[C@H](O)C[C@H]1C(=O)N[C@H](C(=O)N[C@@H](Cc1ccc(O)cc1)C(=O)N[C@@H](CC(N)=O)C(=O)N[C@@H](CCCN)C(N)=O)C(C)(C)C [Onc 110] (H-VDKPPYLPRPRP[Hyp]R[Hyp][Tle]YN[Orn]-NH2) |  | 6.9 (≈ 16 µg/mL) | 
3 | Guan-O(sPEG^5000-GARSG)NNRPVYIPRPRPPHPRL-OH ({Guan″}-[Orn]NNRPVYIPRPRPPHPRL-OH; not fully specified (residue 1)) [Api 137 (sPEG^5000-GARSG)] |  | 3.7 | 
4 | Guan-O(sPEG^20000-GARSG)NNRPVYIPRPRPPHPRL-OH ({Guan″}-[Orn]NNRPVYIPRPRPPHPRL-OH; not fully specified (residue 1)) [Api 137 (sPEG^20000-GARSG)] |  | 10.2 | 
5 | Guan-ONO(sPEG^750-GAARSG)RPVYIPRPRPPHPRL-OH ({Guan″}-[Orn]N[Orn]RPVYIPRPRPPHPRL-OH; not fully specified (residue 3)) [Api 301 (sPEG^750-GAARSG)] |  | 5.6 | Half-life (t1/2) in serum [3]: 55 min
6 | Guan-ONO(sPEG^750-GRSG)RPVYIPRPRPPHPRL-OH ({Guan″}-[Orn]N[Orn]RPVYIPRPRPPHPRL-OH; not fully specified (residue 3)) [Api 301 (sPEG^750-GRSG)] |  | 1.5 | Half-life (t1/2) in serum [3]: 30 min
7 | Guan-ONO(tPEG^750-GAARSG)RPVYIPRPRPPHPRL-OH ({Guan″}-[Orn]N[Orn]RPVYIPRPRPPHPRL-OH; not fully specified (residue 3)) [Api 301 (tPEG^750-GAARSG)] |  | 2.8 | Half-life (t1/2) in serum [3]: 50 min
8 | Guan-ONO(tPEG^750-GARSG)RPVYIPRPRPPHPRL-OH ({Guan″}-[Orn]N[Orn]RPVYIPRPRPPHPRL-OH; not fully specified (residue 3)) [Api 301 (tPEG^750-GARSG)] |  | 1.5 | Half-life (t1/2) in serum [3]: 45 min
9 | Guan-ONO(tPEG^750-GRSG)RPVYIPRPRPPHPRL-OH (Guan-[Orn]N[Orn]RPVYIPRPRPPHPRL-OH; not fully specified (residue 3)) [Api 301 (tPEG^750-GRSG)] |  | 2.9 | Half-life (t1/2) in serum [3]: 55 min
10 | Guan-ONO(tPEG^5000-GAARSG)RPVYIPRPRPPHPRL-OH ({Guan″}-[Orn]N[Orn]RPVYIPRPRPPHPRL-OH; not fully specified (residue 3)) [Api 301 (tPEG^5000-GAARSG)] |  | >47.5 | uncleaved peptide remaining after the indicated time (instead of half-life) ([3]; 5 h): 78%
11 | Guan-ONO(tPEG^5000-GARSG)RPVYIPRPRPPHPRL-OH | R-S |  | 
12 | Guan-ONO(tPEG^5000-GARSG)RPVYIPRPRPPHPRL-OH ({Guan″}-[Orn]N[Orn]RPVYIPRPRPPHPRL-OH; not fully specified (residue 3)) [Api 301 (tPEG^5000-GARSG)] |  | 9.2 | uncleaved peptide remaining after the indicated time (instead of half-life) ([3]; 6 h): 62%
13 | Guan-ONO(tPEG^5000-GRSG)RPVYIPRPRPPHPRL-OH | R-S |  | 
14 | Guan-ONO(tPEG^5000-GRSG)RPVYIPRPRPPHPRL-OH ({Guan″}-[Orn]N[Orn]RPVYIPRPRPPHPRL-OH; not fully specified (residue 3)) [Api 301 (tPEG^5000-GRSG)] |  | >38 | uncleaved peptide remaining after the indicated time (instead of half-life) ([3]; 6 h): 75%
15 | Guan-OO(sPEG^750-GAARSG)NRPVYIPRPRPPHPRL-OH (Guan-[Orn][Orn]NRPVYIPRPRPPHPRL-OH; not fully specified (residue 2)) [Api 300 (sPEG^750-GAARSG)] |  | 2.8 | Half-life (t1/2) in serum [3]: 45 min
16 | Guan-OO(sPEG^750-GRSG)NRPVYIPRPRPPHPRL-OH | R-S |  | 
17 | Guan-OO(tPEG^750-GAARSG)NRPVYIPRPRPPHPRL-OH | R-S |  | 
18 | Guan-OO(tPEG^750-GAARSG)NRPVYIPRPRPPHPRL-OH (Guan-[Orn][Orn]NRPVYIPRPRPPHPRL-OH; not fully specified (residue 2)) [Api 300 (tPEG^750-GAARSG)] |  | 2.8 | Half-life (t1/2) in serum [3]: 35 min
19 | Guan-OO(tPEG^750-GARSG)NRPVYIPRPRPPHPRL-OH (Guan-[Orn][Orn]NRPVYIPRPRPPHPRL-OH; not fully specified (residue 2)) [Api 300 (tPEG^750-GARSG)] |  | 1.5 | Half-life (t1/2) in serum [3]: 45 min
20 | Guan-OO(tPEG^750-GRSG)NRPVYIPRPRPPHPRL-OH (Guan-[Orn][Orn]NRPVYIPRPRPPHPRL-OH; not fully specified (residue 2)) [Api 300 (tPEG^750-GRSG)] |  | 2.9 | Half-life (t1/2) in serum [3]: 40 min
21 | Guan-OO(tPEG^5000-GAARSG)NRPVYIPRPRPPHPRL-OH (Guan-[Orn][Orn]NRPVYIPRPRPPHPRL-OH; not fully specified (residue 2)) [Api 300 (tPEG^5000-GAARSG)] |  | 25.4 | uncleaved peptide remaining after the indicated time (instead of half-life) ([3]; 6 h): 76%
22 | Guan-OO(tPEG^5000-GRSG)NRPVYIPRPRPPHPRL-OH (Guan-[Orn][Orn]NRPVYIPRPRPPHPRL-OH; not fully specified (residue 2)) [Api 300 (tPEG^5000-GRSG)] |  | >44.8 | uncleaved peptide remaining after the indicated time (instead of half-life) ([3]; 6 h): 75%
23 | sPEG^750-GAR-VDKPPYLPRPRPPROIYNO-NH2 | R-V |  | 
24 | tPEG^750-GAR-VDKPPYLPRPRPHypRHypTleYNO-NH2 (tPEG750-GARVDKPPYLPRPRP[Hyp]R[Hyp][Tle]YN[Orn]-NH2; not fully specified) [tPEG^750-GAR-Onc 110] |  | 48.4 | uncleaved peptide remaining after the indicated time (instead of half-life) ([3]; 6 h): 64%
25 | tPEG^750-GAR-VDKPPYLPRPRPPROIYNO-NH2 | R-V |  | 
26 | tPEG^5000-GAR-VDKPPYLPRPRPHypRHypTleYNO-NH2 (tPEG5000-GARVDKPPYLPRPRP[Hyp]R[Hyp][Tle]YN[Orn]-NH2) [tPEG^5000-GAR-Onc 110] |  |  | uncleaved peptide remaining after the indicated time (instead of half-life) ([3]; 6 h): 96%

Now from value to compound, other results behind:

Row | cleaved bond [2] | Compound | MIC in TSB [1] [µM] | also measured
27 | R-S | Guan-ONO(sPEG^750-GAARSG)RPVYIPRPRPPHPRL-OH |  | 
28 | R-S | Guan-ONO(sPEG^750-GARSG)RPVYIPRPRPPHPRL-OH |  | 
29 | R-S | Guan-ONO(sPEG^750-GRSG)RPVYIPRPRPPHPRL-OH |  | 
30 | R-S | Guan-ONO(tPEG^750-GAARSG)RPVYIPRPRPPHPRL-OH |  | 
31 | R-S | Guan-ONO(tPEG^750-GARSG)RPVYIPRPRPPHPRL-OH |  | 
32 | R-S | Guan-ONO(tPEG^750-GRSG)RPVYIPRPRPPHPRL-OH |  | 
33 | R-S | Guan-ONO(tPEG^5000-GAARSG)RPVYIPRPRPPHPRL-OH |  | 
34 | R-S | Guan-OO(sPEG^750-GAARSG)NRPVYIPRPRPPHPRL-OH |  | 
35 | R-S | Guan-OO(sPEG^750-GARSG)NRPVYIPRPRPPHPRL-OH |  | 
36 | R-S | Guan-OO(tPEG^750-GARSG)NRPVYIPRPRPPHPRL-OH |  | 
37 | R-S | Guan-OO(tPEG^750-GRSG)NRPVYIPRPRPPHPRL-OH |  | 
38 | R-S | Guan-OO(tPEG^5000-GAARSG)NRPVYIPRPRPPHPRL-OH |  | 
39 | R-S | Guan-OO(tPEG^5000-GARSG)NRPVYIPRPRPPHPRL-OH |  | 
40 | R-S | Guan-OO(tPEG^5000-GRSG)NRPVYIPRPRPPHPRL-OH |  | 
41 | R-V | sPEG^750-GAR-VDKPPYLPRPRPHypRHypTleYNO-NH2 |  | 
42 | R-V | tPEG^750-GAR-VDKPPYLPRPRPHypRHypTleYNO-NH2 |  | 
43 | R-V | tPEG^5000-GAR-VDKPPYLPRPRPPROIYNO-NH2 |  | 
